From patent publication US6455589B1, “Primary N-hydroxylamines” (The Regents of the University of California, priority 1999, dated 2002)
Read-outs that look alike come from different tables or passages of the source.

Columns and labels:
IMR90 cells [1] = assay: Replicative life span of IMR90 cells (gain in PDLs, delay of senescence); format: cell-based, human; settings: for Gain in PDLs: continuous cultivation, compared to control untreated cells
Method: Cultivating IMR90 cells in culture—Normal human […] fibroblasts (IMR90) cells were obtained from the Coriell Institute for Medical Research at a population doubling level (PDL) of 10.85. The PDLs were calculated as log2(D/Do), where D and Do are defined as the density of cells at the time of harvesting and seeding, respectively. Stock cultures were grown in 100 mm Corning tissue culture dishes containing 10 ml of Dulbecco's modified Eagle's medium (DMEM) supplemented with 10% (V/V) fetal bovine serum (Hyclone). Stock cultures were split once a week when near confluence. Cells were harvested by trypsinization for 5 min at 37° C., immediately collected in 5 ml complete DMEM, washed once with 5 ml complete DMEM and incubated for 10-15 min at 37° C. to allow the cells to recover.
To test the effect of hydroxylamines on replicative life span, IMR90 cells were seeded at 0.5×106 per 100 mm dish. N-hydroxylamines (N-t-butyl hydroxylamine, N-benzyl hydroxylamine, N-methyl hydroxyl- amine) were added either individually (final concentration 10 or 100 μM) or in a combination of all three N-hydroxylamines (30 μM each). The cultures were split after 7 days and seeded with fresh medium supplemented with the hydroxylamines described above. In other experiments the medium of the cultures was replaced after 3 days of seeding with fresh medium and with fresh N-hydroxylamines, the split was done as usual after 7 days from seeding. The effect of PBN on life span was tested as in (5).

[2] = Neuron loss following brain ischemia and reperfusion injury (Examples 14-16); parameters: species or system gerbils; settings: in vivo
Method: The test procedure is that reported by W. Cao, J. M. Carney, A. Duchon, R. A. Floyd and M. Chevion as “Oxygen free radical involvement in ischemia and reperfusion injury to brain, Neuroscience Letters, 88 (1988), 233. In the experiments a test compound is administered to groups of six gerbils i.p. as a single dose 30 min before 5 min bilateral carotid occlusion. The density of neuronal nuclei in a 100 micron is measured. Two controls are present—controls which receive no test compound and controls which receive no test compound and no brain ischemia. The compounds of the invention show advantages as compared to the prior art compounds.
The general method described above is used but the test compounds are administered i.p. as a single dose 30 min after reperfusion following 5 min ischemia.
Comparing the Subject Hydroxylamines With PBN to Determine the Relative Effectiveness for Protection of Neuronal Loss when Administered i.v. 60 min after Reperfusion Onset Following 5 min Ischemia in Gerbils Using the General Test Method Described Above

[3] = 8-arm maze test 24 hours following 5 min ischemia; format: in vivo; settings: 24 hours post 5 min ischemia, young adult gerbils
Method: In this experiment, young adult (3-4 months of age) gerbils are tested to determine their ability to perform an 8-arm maze test 24 hours following an ischemic event as described above As compared to nonischemic animals, when untreated they committed many more errors. PBN and subject hydroxyamines are administered to some of the test animals. Gerbils treated with high doses of the hydroxylamines have error levels indistinguishable from those of nonischemic animals.

[4] = Infarct volume following an ischemic event (Example 18); format: in vivo
Text: The Ability of the Subject Hydroxylamines to Reduce Infarct Volume Following an Ischemic Event While PBN and the hydroxylamines are both effective at low doses, at high doses hydroxylamines gave the best protection and PBN was toxic.

[5] = Lethality protection in aged gerbils from 10 min ischemia; format: in vivo; settings: given 30 min before 10 min ischemia
Method: In this study, subject hydroxylamines and PBN are compared for their ability to impart lethality protection (% survived) in aged gerbils (18-24 months of age, n=12/group) from 10 min ischemia when given 30 min before ischemia.

[6] = format: in vivo; settings: 560 mg/kg single i.p. dose
Method: An important advantage of the subject hydroxylamines as compared to PBN, is its markedly diminished toxicity. Acute lethality in C57BL/6L mice is determined based upon varying sizes of single i.p. doses of hydoxylamine. […] The hydroxlamines show no toxicity at doses nearly twenty times as great.

[7] = Depression in body temperature; format: in vivo, mice and gerbils; settings: 500 mg/kg
Method: Another undesirable systemic effect which has been observed in vivo with nitrone radical traps is a depression in body temperature. This toxicity can have serious health consequences and also can complicate diagnosis of other conditions. The subject hydroxylamines are administered to mice and gerbils at levels as high as 1000 mg/kg with no measurable temperature decrease. In contrast, PBN gives up to an 8° C. decrease in body temperature at a does of only 500 mg/kg.

[8] = system: glutamine synthetase (GS); assay: Protection of glutamine synthetase against the effects of βAP fragments; format: biochemical
Text: (§1) While the hydroxylamines and PBN each show the ability to protect GS and CK against the effects of βAP fragments, the hydroxyamines give complete protection and in fact can at least partly reverse the effects of oxidation. In contrast, PBN's effectiveness is quite limited as it asymptotically levels out at a substantially incomplete level of protection.

creatine kinase (CK) = assay: Protection of creatine kinase against the effects of βAP fragments; format: biochemical
Text: as §1

in vivo = assay: in vivo
Method: C57BL/6J and DBA/2J male mice (35-40 g) are tested for the acute lethal effects of adriamycin and the prevention of acute lethality by pretreatment doses of subject hydroxylamines. Mice are injected i.p with either saline or subject hydroxylamines 30 minutes prior to administration of adriamycin.

IMR90 cells [9] = settings: literature (5); cited from earlier work
[10] = in vivo; cited from earlier work
[11] = cited from earlier work
[12] = rat, in vivo; cited from earlier work
[13] = gerbils; cited from earlier work
[14] = rats; cited from earlier work
[15] = system: mitochondrial preparations of cerebral cortex; settings: relatively high concentrations; cited from earlier work
[16] = 300 mg/kg, in combination with adriamycin

CC(C)(C)[N+]([O-])=Cc1ccccc1 [PBN, α-Phenyl-N-t-butyl nitrone]
Delay of senescence of IMR90 cells (in words) (IMR90 cells [1]): old solutions were more effective than fresh solutions | Gain in PDLs (IMR90 cells [1]; 200 μM): 2.4 PDLs | Gain in PDLs (IMR90 cells [1]; 800 μM): 14.8 PDLs | Concentration required to achieve nearly a similar gain in PDLs, relative to N-hydroxylamines (IMR90 cells [1]; PBN 800 μM vs N-hydroxylamines 100 μM): 8 times higher | Neuronal density in control gerbils without brain injury [2]: Neither PBN nor the subject hydroxylamines have an effect | Errors in 8-arm maze test [3]: less effective | Reduction of infarct volume / toxicity ([4]; high doses): toxic | Reduction of infarct volume ([4]; low doses): effective | Lethality protection (% survived) [5]: only partially effective | Acute toxicity [6]: significant toxicity | Decrease in body temperature [7]: ≤ 8 °C | Protection of GS against the effects of βAP fragments [8]: quite limited | Protection of CK against the effects of βAP fragments (creatine kinase (CK)): quite limited | Sedation (in vivo; 100 mg/kg, in combination with adriamycin): slight sedation | Combined toxicity (lethality) (in vivo; [16]): 10-20% | Sedation (in vivo; [16]): marked sedation | Shift in the adriamycin dose-effect curve (in vivo; pretreatment): slight shift to the right | Delay of senescence in IMR90 (IMR90 cells [9]): delays senescence | Age-related oxidative changes in the brains of old gerbils [10]: reverses | Senescence ([11]; normal mice): delays senescence | Senescence ([11]; senescence-accelerated mice): delays senescence | Mitochondrial decay in the liver of old rats [12]: reverses mitochondrial decay | Effect after oxidative damage from ischemia/reperfusion injury [13]: neuroprotective effect | Effect after oxidative damage from ischemia/reperfusion injury [14]: neuroprotective effect | Production of hydrogen peroxide [15]: reduces
